Test results published in PMC10172927, “Maturation of the malarial phosphatidylserine decarboxylase is mediated by high affinity binding to anionic phospholipids” (The Journal of Biological Chemistry, 2023).

Target: T1, PkPSD proenzyme; MBP-His6-Δ34PkPSD(S308A) (Plasmodium knowlesi, UniProt B3L2V1, S308A)
T1 construct: gene PKH_072580
Test: biochemical

T1 sequence (B3L2V1 35-354 S308A): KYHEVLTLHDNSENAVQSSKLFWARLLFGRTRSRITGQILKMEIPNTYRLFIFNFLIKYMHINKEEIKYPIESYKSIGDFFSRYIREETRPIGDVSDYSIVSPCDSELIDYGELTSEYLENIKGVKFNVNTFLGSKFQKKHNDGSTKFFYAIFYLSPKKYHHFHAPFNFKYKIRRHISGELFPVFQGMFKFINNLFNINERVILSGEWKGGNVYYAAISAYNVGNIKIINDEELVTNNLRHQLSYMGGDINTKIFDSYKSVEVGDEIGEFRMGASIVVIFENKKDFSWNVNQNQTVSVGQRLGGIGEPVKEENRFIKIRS

Structure (SMILES): CCCCCCCC/C=C\CCCCCCCC(=O)OC[C@H](COP(=O)(O)OCC(O)CO)OC(=O)CCCCCCC/C=C\CCCCCCCC (some centres unmarked) [DOPG]
- Kd: 0.0664 µM

Structure (SMILES): CCCCCCCC/C=C\CCCCCCCC(=O)OC[C@H](COP(=O)(O)OC[C@H](N)C(=O)O)OC(=O)CCCCCCC/C=C\CCCCCCCC [DOPS]
- Kd: 0.0804 µM
